Peptide text beside a SMILES is read from it.
Experiments:
[1] = Emulsion formation and stability (mixing with non-aqueous phase, manual agitation); type: physicochemical; details: chloroform-water
Text: We designed the peptide Trp-His-His-Trp (WHHW, SEQ ID NO 1), which contains a metal-binding dihistidine moiety surrounded by two hydrophobic amino acids. When an aqueous solution of the peptide and certain metal ions are mixed with a non-aqueous phase, an emulsion is formed (FIG. 1B). […] Depending on the ratio between the aqueous and non-aqueous phases, o/w or w/o emulsions can be formed (FIG. 1C). The peptide has weak inherent fluorescence, but its presence on the interface of the emulsion droplets was inferred by labeling it with fluorescein isothiocyanate (FITC) (FIG. 1D).
By increasing the pH again, the emulsion can be reassembled. With chloroform as the non-aqueous phase, the emulsion has a critical micelle concentration of ~0.2 mM and it is stable for at least 4 months at room temperature (FIG. 3A). Adding ethylenediaminetetraacetic acid (EDTA) to remove the metal ions visibly disassembled the emulsion after ~24 h (FIG. 3B).
The same peptide derivatives in the presence of Cu^2+ ions, were further mixed with chloroform and manually agitated to form emulsions (FIG. 8).
The emulsions were prepared by mixing a peptide solution with the metal ions to a final concentration of 1 mm each and adding NaOH to obtain pH=10. The desired non-aqueous phase was added to this solution at 50% (v/v) and the two phases were manually agitated to form the emulsions. […]

[2] = in words; cited from earlier work
[3] = Encapsulation efficiency (% EE) in castor oil emulsions and solubility in the oil phase; type: physicochemical; details: for % EE (encapsulation efficiency) in words: castor oil emulsion
Procedure: The % EE values may be altered to fit different drugs by changing the oil phase or by changing the emulsion preparation parameters such as the oil-water ratio.
The encapsulation efficiency (% EE) values were determined by comparing the amount of the free compound in the aqueous phase with the initial concentration. The compounds were dissolved in castor oil with 10% (v/v) ethanol. […] The % EE values were calculated using the formula: % EE=(Cinitial−C(aq.))/Cinitial×100%, where Cinitial is the concentration of the compound in the emulsion and Caq. is the concentration of the compound in the aqueous phase after the centrifugation. The measurements were performed in triplicates.

[4] = Zn^2+ ions for PTX; metal ions for the others; cited from earlier work
[5] = histidine residues; cited from earlier work
[6] = Self-assembly of the peptide observed experimentally; type: physicochemical
[7] = UV-vis titration / Benesi-Hildebrand plot / Job's plot of peptide with Cu^2+ ions; type: binding; details: read-out: stability constant (converted)
Procedure: FIG. 6. Benesi-Hildebrand plot. The stability constant derived from this plot was 6918.3±0.2 M^−1, similar to the known value for imidazole.
(FIG. 3A). […] A Job's plot was prepared as well with the peptide and Cu^2+ ions (FIG. 7B). In the samples with excess Cu^2+ ions (those above χ=0.5) the absorbance increased without an increase in the complex concentration. This may be because of the formation of Cu(OH)2 precipitates from the excess Cu^2+ ions due to the alkaline pH. To negate this effect, the absorbance values of solutions that contained the concentration of the excess Cu^2+ were subtracted from the original measurements. This yielded good linear fittings that indicate a 1:1 binding ratio.
For the UV-vis titration, a peptide solution (1.5 mm) was titrated with a CuCl2 solution (15 mM). The solutions were left for 5 min and the absorbance was measured using a UV-vis spectrophotometer (Shimadzu, UV-1650PC, Kyoto, Japan). For the Job's plot assay, peptide solutions with different mole fractions of Cu^2+ ions (up to 1 mm) were prepared at pH=9 and their absorbance values were measured.

[8] = system: cervical adenocarcinoma HeLa cells; assay: MTT cytotoxicity assay, 72 h incubation; type: cell-based; details: Homo sapiens, PTX on its own, dissolved in DMSO, read-out: half maximal inhibitory concentration (IC50)
Procedure: The ability to use these emulsions for drug delivery purposes was assessed using the 3-(4,5-dimethylthiazol-2-yl)-2,5-diphenyltetrazolium bromide (MTT) assay. The assay was conducted on cervical adenocarcinoma HeLa cells with the widely used drug paclitaxel (PTX). […] This poses significant disadvantages due to stability issues of the drug that can precipitate when diluted, causing therapeutic failures and possibly harming the patients. […] One way to overcome these complications is to administer the drug in an emulsion. An additional advantage of the system proposed herein is that the disassembly of the emulsion droplets will release the metal ions of the complex in addition to the PTX. […]
The complete cell-culture medium was prepared by the addition of 10% fetal bovine serum (FBS), 1% L-glutamine, and 1% Penicillin-Streptomycin (all purchased from Sartorius) to Dulbecco's Modified Eagle's Medium (DMEM, Sigma Aldrich). […] Afterwards, cytotoxicity was measured by the previously reported MTT method. […] The medium was removed and replaced with isopropanol (200 μL), and upon complete dissolution of the formazan, the absorbance was measured at 550 nm on a Spark 10 M multimode microplate reader spectrophotometer (Tecan Group Ltd., Mannedorf, Switzerland). […]

N[C@@H](Cc1ccccc1)C(=O)N[C@@H](Cc1c[nH]cn1)C(=O)N[C@@H](Cc1c[nH]cn1)C(=O)N[C@@H](Cc1ccccc1)C(=O)O [FHHF, Phe-His-His-Phe] (H-FHHF-OH)
emulsion stability compared with WHHW ([1]; 1 mM peptide and 1 mM Cu^2+): less stable

O=C1OC2(c3ccc(O)cc3Oc3cc(O)ccc32)c2ccc(N=C=S)cc21 [FITC, fluorescein isothiocyanate]
Solubility in water [2]: Insoluble
solubility in castor oil [3]: low solubility
% EE (encapsulation efficiency) in words [3]: lower

COc1cc(/C=C/C(=O)CC(=O)/C=C/c2ccc(O)c(OC)c2)ccc1O [curcumin]
anti-tumor efficacy in presence of metal ions [4]: promoted

CCN(CC)c1ccc2nc3c4ccccc4c(=O)cc-3oc2c1 [Nile red]
Solubility in water [2]: Insoluble

c1c[nH]cn1 [imidazole]
pKa of the imidazole's amine [5]: ~ 6

N[C@@H](Cc1c[nH]c2ccccc12)C(=O)N[C@@H](Cc1c[nH]cn1)C(=O)N[C@@H](Cc1c[nH]cn1)C(=O)N[C@@H](Cc1c[nH]c2ccccc12)C(=O)O [WHHW, Trp-His-His-Trp] (H-WHHW-OH)
formation of emulsions with Cu^2+ ions ([1]; 1 mM peptide derivative and 1 mM Cu^2+): formed emulsions
self-assembled structure with Cu^2+ ions ([6]; 5 mM peptide, 5 mM Cu^2+): spherical aggregates alongside the fibrous structures
self-assembled structure ([6]; 10 mM, water, 24 h): fibrous structures
Kd [7]: 145 µM

CCN(CC)C(=S)SSC(=S)N(CC)CC [Disulfiram]
anti-tumor efficacy in presence of metal ions [4]: promoted

CC(=O)O[C@H]1C(=O)[C@@]2(C)[C@H]([C@H](OC(=O)c3ccccc3)[C@]3(O)C[C@H](OC(=O)[C@H](O)[C@@H](NC(=O)c4ccccc4)c4ccccc4)C(C)=C1C3(C)C)[C@]1(OC(C)=O)CO[C@@H]1C[C@@H]2O [Paclitaxel]
IC50 [8]: 0.014 ± 0.005 µM
Solubility in water [2]: Insoluble
anti-tumor efficacy in presence of metal ions [4]: enhanced

Cc1ccc(C)c(N=Nc2cc(C)c(N=Nc3c(O)ccc4ccccc34)cc2C)c1 [Oil red O]
Solubility in water [2]: Insoluble
solubility in castor oil [3]: low solubility
% EE (encapsulation efficiency) in words [3]: lower

Source: US20260297127A1, “REVERSIBLE SURFACTANT AND MULTIFUNCTIONAL DRUG DELIVERY SYSTEMS BASED THEREON” (Yissum Research Development Company of the Hebrew …, priority 2023, published 2026)
